Test results from patent publication US20260015632A1, “CULTURE MEDIUM COMBINATION FOR INDUCING DIFFERENTIATION OF PLURIPOTENT STEM CELLS INTO CD34+ HEMATOPOIETIC STEM/PROGENITOR CELLS” (SHENZHEN CELL INSPIRE BIOTECHNOLOGY CO., LTD., priority 2023, published 2026).

Columns and labels:
Format in all cases: cell-based, human
iPSCs [1] = experiment: Optimization of iNK purity and yield, flow cytometry CD56/CD45 and fold expansion; set-up: yield of HSPCs / yield of iNK cells differentiated from these HSPCs: dose or concentration left out as unconfirmed; details: for proliferation rate of iNK cells: concentrations and media as in Example 5; for proportion of CD56+ or CD45+ cells / yield of iNK cells: added to fourth differentiation medium: NAD+, 0.1 ng/mL HLA-C, 1000 IU IL-2 or 15 μM SB203580
Protocol: To further improve the differentiation efficiency and cytotoxicity of the obtained NK cells, UM171 was added to the second differentiation medium. […] The expression levels of CD56 and CD45 of the obtained NK cells and the cell fold expansion were measured by flow cytometry.
(§1) The cell expansion at the HSPC stage and the NK stage was calculated by dividing the number of suspension cells obtained at the sampling time point by the initial number of iPSCs at the spheroidization stage. The cell number was determined using the Countess™ 2 automated cell counter, and specific operating procedures can be found in the instrument's instructions.

iPSCs [2] = experiment: qPCR marker expression on Day 3 of iPSC differentiation, optimization of first differentiation medium; details: Day 3 of differentiation, 50 ng/mL BMP4, 10 μM CHIR99021; for expression of OCT4: added to first differentiation medium (mTeSR1+5 μM Y27632), alone or combined; for expression of early mesoderm and mesoderm markers (MIXL1 and T) / expression of hemogenic endothelial lineage-related markers (KDR, SCL) / expression of the HSPC marker (CD34): added to first differentiation medium
Protocol: iPSCs were aggregated into spheroids by either static spheroidization or shaking spheroidization. • 1) Static spheroidization. An appropriate number of iPSCs in a single-cell state were transferred to an AggreWell™ microwell plate, and subsequent operations were carried out according to the AggreWell™ 400 or AggreWell™ 800 instructions. Briefly, the concentration of the single-cell suspension was adjusted, and sufficient volumes of the single-cell suspension were added to each well of the AggreWell™ 400 or AggreWell™ 800 to achieve approximately 500,000 iPSCs in a single-cell state per well. Then, each well was supplemented with mTeSR™1 or TeSR™-AOF medium, and 5 μM Y27632 was added to reach a total of 5 mL/well. Then, a balance plate filled with water was prepared to match the weight and position of the AggreWell™ microwell plate in the centrifuge. The cells were then pipetted gently up and down several times to ensure uniform distribution of cells across the wells. The AggreWell™ plate was immediately centrifuged at 100 g for 3 minutes using the balanced plate prepared in the previous step to force the cells into the microwells. The plate was observed under a microscope to verify that the cells were evenly distributed in the microwells. The cells were cultured under static conditions at 37° C., 5% CO2, and 95% humidity for 1 to 2 days. • 2) Shaking spheroidization. The concentration of the single-cell suspension was adjusted, and 1.5 million iPSCs in a single-cell state were transferred to a 6-well plate. Each well was supplemented with mTeSR™1 medium containing 5 μM Y27632, 50 ng/mL BMP4, and 10 μM CHIR99021 to achieve a volume of 3 mL per well. The culture plate was placed on an orbital shaker at 60 rpm, 70 rpm, 80 rpm, or 90 rpm for culture, and the wells with uniform sized spheroids were selected for subsequent culture.
The iPSCs in the single-cell state were resuspended in the following four media after harvesting: 1) mTeSR™1+5 μM Y27632, 2) mTeSR™1+5 μM Y27632+50 ng/mL BMP4, 3) mTeSR™1+5 μM Y27632+10 μM CHIR99021, and 4) mTeSR™1+5 μM Y27632+50 ng/mL BMP4+10 μM CHIR99021. The cells were then cultured according to the method in Example 1. On Day 3 of differentiation, the cells were lysed, and mRNA was extracted and reverse-transcribed to obtain cDNA. The primers in Table 2 were used to measure the expression levels of OCT4, MIXL1, T, KDR, SCL, and CD34 in HSPCs on Day 3 of differentiation under the above-mentioned media conditions.

iPSCs [3] = experiment: FACS proportion of CD34+ cells, additive in second differentiation medium; details: Day 12; 10 μM CHIR99021 or 0.75 μM SR1 added to second differentiation medium
Protocol: After 1 to 2 days of cell spheroidization, the medium was replaced with a second differentiation medium, and then the medium was changed every 2 days for 4 to 5 days of culture. The components of the second differentiation medium included: StemPro-34 complete medium supplemented with 1% ITS-X, 1 μM β-mercaptoethanol, 50 μg/mL ascorbic acid, 1× GlutaMAX, 50 ng/mL VEGF, 50 ng/mL bFGF, 50 ng/mL BMP4, and 35 nM UM171. At this stage, the cells can be transferred to a closed system for static culture or shaking culture.
After culturing for 3 days in the second differentiation medium, the medium was replaced with a third differentiation medium. The components of the third differentiation medium included: StemPro-34™ SFM complete medium supplemented with 1% ITS-X, 1 μM β-mercaptoethanol, 50 μg/mL ascorbic acid, 1× GlutaMAX, 50 ng/mL VEGF, 50 ng/mL bFGF, 50 ng/mL SCF, 10 ng/mL FLT3L, and 30 ng/mL TPO. The expression of CD34 or CD43, and CD44 was detected by FACS. […] The proportion and fold expansion of CD34^+ cells were detected at five time points: Day 8, Day 9, Day 10, Day 11, and Day 12. […]
In order to further increase the yield and proportion of CD34^+ cells, 10 μM CHIR99021 or 0.75 μM SR1 was added to the second differentiation medium of Example 1, and the proportion of CD34^+ cells in the cell population on Day 12 was detected by FACS. […]

iPSCs [4] = experiment: UM171 in second and/or third differentiation medium: yield of HSPCs and iNK cells; details: 35 nM UM171 added to second differentiation medium
Protocol: 35 nM UM171 was added to the second differentiation medium and/or the third differentiation medium in Example 1, and the proportion of CD34^+ cells in the cell population on Day 12 and the proportion of CD56^+ cells in the cell population on Day 35 were detected by FACS. The results at these two time points are shown in FIG. 16, which indicate that the addition of UM171 to the second differentiation medium can increase the yield of HSPCs differentiated from iPSCs and the yield of iNK cells differentiated from HSPCs.
as §1

[5] = ABC294640 added to second and third differentiation medium

O=C(NCc1ccncc1)C12CC3CC(C1)CC(c1ccc(Cl)cc1)(C3)C2 [ABC294640]
yield of HSPCs (iPSCs [1]; [5]): reducing
yield of iNK cells differentiated from these HSPCs (iPSCs [1]; [5]): significantly increase
proliferation rate of iNK cells (iPSCs [1]): increase

Cc1c[nH]c(-c2cnc(NCCNc3ccc(C#N)cn3)nc2-c2ccc(Cl)cc2Cl)n1 [CHIR99021]
expression of OCT4 (iPSCs [2]): decreased significantly
expression of early mesoderm and mesoderm markers (MIXL1 and T) (iPSCs [2]): began to decrease
expression of hemogenic endothelial lineage-related markers (KDR, SCL) (iPSCs [2]): increased significantly
expression of the HSPC marker (CD34) (iPSCs [2]): significantly increased
proportion of CD34+ cells in the cell population (iPSCs [3]): increase

NC(=O)c1ccc[n+]([C@@H]2O[C@H](COP(=O)([O-])OP(=O)(O)OC[C@H]3O[C@@H](n4cnc5c(N)ncnc54)[C@H](O)[C@@H]3O)[C@@H](O)[C@H]2O)c1 [NAD^+, nicotinamide adenine dinucleotide]
proportion of CD56+ or CD45+ cells (iPSCs [1]): without affecting
yield of iNK cells (iPSCs [1]): increase
proliferation rate of iNK cells (iPSCs [1]): increase

C[S+]([O-])c1ccc(-c2nc(-c3ccncc3)c(-c3ccc(F)cc3)[nH]2)cc1 (stereo not drawn) [SB203580]
proportion of CD56+ or CD45+ cells (iPSCs [1]): without affecting
yield of iNK cells (iPSCs [1]): increase
proliferation rate of iNK cells (iPSCs [1]): increase

CC(C)n1cnc2c(NCCc3ccc(O)cc3)nc(-c3csc4ccccc34)nc21 [SR1]
proportion of CD34+ cells in the cell population (iPSCs [3]): increase

Cn1nnc(-c2ccc3c(c2)[nH]c2nc(Cc4ccccc4)nc(NC4CCC(N)CC4)c23)n1 (stereo not drawn) [UM171]
yield of HSPCs differentiated from iPSCs (iPSCs [4]; Day 12): increase
yield of iNK cells differentiated from HSPCs (iPSCs [4]; Day 35): increase

B1: BMP4: growth factor added to the first and second differentiation medium (protein, UniProt P12644 293-408, looked up)
Bone morphogenetic protein 4: SPKHHSQRARKKNKNCRRHSLYVDFSDVGWNDWIVAPPGYQAFYCHGDCPFPLADHLNSTNHAIVQTLVNSVNSSIPKACCVPTELSAISMLYLDEYDKVVLKNYQEMVVEGCGCR
expression of OCT4 (iPSCs [2]): decreased significantly
expression of early mesoderm and mesoderm markers (MIXL1 and T) (iPSCs [2]): began to decrease
expression of hemogenic endothelial lineage-related markers (KDR, SCL) (iPSCs [2]): increased significantly
expression of the HSPC marker (CD34) (iPSCs [2]): significantly increased
